From patent US8664399B2, “Substituted heterocyclic compounds as ion channel modulators” (Gilead Sciences, Inc., priority 2008, dated 2014)

Assays:
Format in all cases: cell-based
[1] = biological target: T1, human cardiac sodium channel, hNav1.5 (Homo sapiens, UniProt Q14524); experiment: Late INa screening assay (automated whole cell patch clamp, PatchXpress; late current generated with 10 μM Tefluthrin); details: HEK293 cells expressing hNav1.5; for inhibition at 10 µM: 10 μM test compound, read-out: Late Ina % blk (10 μM test cmpd)
T1 construct: host or cells: HEK293
T1 sequence (Q14524 whole entry): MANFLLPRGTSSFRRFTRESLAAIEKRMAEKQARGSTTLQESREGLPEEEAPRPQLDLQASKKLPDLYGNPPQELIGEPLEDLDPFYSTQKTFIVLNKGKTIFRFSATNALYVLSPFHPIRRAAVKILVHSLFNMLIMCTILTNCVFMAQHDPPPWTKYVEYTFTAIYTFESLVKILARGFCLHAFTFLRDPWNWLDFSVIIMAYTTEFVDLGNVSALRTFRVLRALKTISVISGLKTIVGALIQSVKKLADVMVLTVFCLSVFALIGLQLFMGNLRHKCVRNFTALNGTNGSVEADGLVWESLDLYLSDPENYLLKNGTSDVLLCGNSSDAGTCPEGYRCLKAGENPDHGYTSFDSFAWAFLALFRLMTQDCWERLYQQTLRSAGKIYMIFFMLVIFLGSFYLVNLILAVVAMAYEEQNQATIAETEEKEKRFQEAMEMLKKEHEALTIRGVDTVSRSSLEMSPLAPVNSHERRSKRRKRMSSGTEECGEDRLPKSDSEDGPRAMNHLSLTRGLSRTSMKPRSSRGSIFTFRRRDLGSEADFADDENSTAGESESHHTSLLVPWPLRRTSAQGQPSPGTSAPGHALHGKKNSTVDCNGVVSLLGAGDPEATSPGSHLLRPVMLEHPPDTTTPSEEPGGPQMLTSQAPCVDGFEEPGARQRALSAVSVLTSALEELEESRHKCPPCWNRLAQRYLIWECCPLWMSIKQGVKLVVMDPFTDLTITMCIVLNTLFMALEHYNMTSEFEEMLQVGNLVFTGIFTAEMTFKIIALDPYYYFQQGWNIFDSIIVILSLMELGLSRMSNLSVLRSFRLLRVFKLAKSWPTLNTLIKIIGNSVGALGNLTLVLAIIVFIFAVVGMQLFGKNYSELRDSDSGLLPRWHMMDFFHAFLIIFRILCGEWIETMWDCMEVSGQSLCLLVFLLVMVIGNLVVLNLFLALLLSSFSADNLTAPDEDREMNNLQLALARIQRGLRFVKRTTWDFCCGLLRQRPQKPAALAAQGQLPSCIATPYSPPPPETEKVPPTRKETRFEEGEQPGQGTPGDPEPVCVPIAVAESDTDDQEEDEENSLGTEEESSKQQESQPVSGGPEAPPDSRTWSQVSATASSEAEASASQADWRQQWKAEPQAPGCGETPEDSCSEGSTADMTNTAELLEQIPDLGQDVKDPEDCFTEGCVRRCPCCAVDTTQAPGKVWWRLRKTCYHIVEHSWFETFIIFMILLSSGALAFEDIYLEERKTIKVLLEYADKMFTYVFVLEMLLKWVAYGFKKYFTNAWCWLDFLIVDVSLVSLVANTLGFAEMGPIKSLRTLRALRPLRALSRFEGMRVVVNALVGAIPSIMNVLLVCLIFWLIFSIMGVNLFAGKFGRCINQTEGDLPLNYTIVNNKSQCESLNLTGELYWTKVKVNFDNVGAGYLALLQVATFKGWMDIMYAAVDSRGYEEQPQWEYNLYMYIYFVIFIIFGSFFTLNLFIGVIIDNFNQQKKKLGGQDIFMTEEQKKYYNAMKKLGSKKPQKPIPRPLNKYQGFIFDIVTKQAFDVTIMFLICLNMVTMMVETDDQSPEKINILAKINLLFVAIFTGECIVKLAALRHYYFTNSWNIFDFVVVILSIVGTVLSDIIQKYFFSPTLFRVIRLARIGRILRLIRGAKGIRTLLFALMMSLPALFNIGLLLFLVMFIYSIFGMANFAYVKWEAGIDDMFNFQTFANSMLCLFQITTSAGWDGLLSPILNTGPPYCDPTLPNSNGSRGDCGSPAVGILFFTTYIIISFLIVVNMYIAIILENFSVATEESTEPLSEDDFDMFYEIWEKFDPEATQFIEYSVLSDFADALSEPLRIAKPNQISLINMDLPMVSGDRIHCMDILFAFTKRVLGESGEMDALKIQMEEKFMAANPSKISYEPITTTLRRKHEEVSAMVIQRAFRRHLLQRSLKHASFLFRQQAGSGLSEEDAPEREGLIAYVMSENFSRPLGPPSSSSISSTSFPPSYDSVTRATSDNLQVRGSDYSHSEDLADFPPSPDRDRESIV
Protocol: The late sodium current (Late INa) and peak sodium current (Peak INa) assays were performed on an automated electrophysiology platform, PatchXpress 7000A (MDS Analytical Technologies, Sunnyvale, Calif.), which uses the whole cell patch clamp technique to measure currents through the cell membrane of up to 16 cells at a time. The assay uses an HEK293 (human embryonic kidney) cell line heterologously expressing the wild-type human cardiac sodium channel, hNav1.5, purchased from Millipore (Billerica, Mass.). No beta subunits were coexpressed with the Na channel alpha subunit. Cells were maintained with standard tissue culture procedures and stable channel expression was maintained with 400 μg/ml Geneticin in the culture medium. Cells isolated for use on PatchXpress were incubated for 5 minutes in Versene 1X and then for 2 minutes in 0.0125% Trypsin-EDTA (both at 37° C.) to ensure that 80-90% of the cells are single and not part of a cell cluster. Experiments were carried out at 24-27° C.
For both the Late INa and Peak INa assays, series resistance compensation was set to 50% and whole-cell compensation is performed automatically. Currents were low-pass filtered at 10 kHz and digitized at 31.25 kHz. Currents through open sodium channels were automatically recorded and stored in the DataXpress2 database (MDS Analytical Technologies, Sunnyvale, Calif.). Analysis is performed using DataXpress2 analysis software and data are compiled in Excel.
Compound stocks were routinely made in glass vials to 10 mM in dimethyl sulfoxide (DMSO). In some cases, when compounds were not soluble in DMSO, they were made in 100% ethanol. Stocks were sonicated as necessary. The extracellular solution for screening Late INa was composed of: 140 mM NaCl, 4 mM KCl, 1.8 mM CaCl2, 0.75 mM MgCl2, and 5 mM HEPES with pH adjusted to 7.4 using NaOH. The extracellular solution for screening Peak INa was composed of: 20 mM NaCl, 120 mM N-methyl-D glucamine, 4 mM KCl, 1.8 mM CaCl2, 0.75 mM MgCl2, and 5 mM HEPES with pH adjusted to 7.4 using HCl. The intracellular solution used to perfuse the inside of the cells for both the Late INa and Peak INa assays contained: 120 mM CsF, 20 mM CsCl, 5 mM EGTA, 5 mM HEPES and pH adjusted to 7.4 with CsOH. […] The 0Na extracellular solution used at the end of each experiment for the Late INa and Peak INa assays to measure baseline current contained: 140 mM N-methyl-D-glucamine; 4 mM KCl; 1.8 mM CaCl2; 0.75 mM MgCl2; 5 mM HEPES and pH was adjusted to 7.4 with HCl.
For the Late INa assay, sodium channels were activated every 10 seconds (0.1 Hz) by depolarizing the cell membrane to −20 mV for 250 milliseconds (ms) from a holding potential of −120 mV. In response to a −20 mV voltage step, typical Nav1.5 sodium currents activate rapidly to a peak negative current and then inactivate nearly completely within 3-4 ms.
All compounds were tested to determine their activity in blocking the late sodium current. Late INa current was generated by adding 10 μM Tefluthrin (pyrethroid) to the extracellular solution while recording Na currents.

hERG potassium channel = biological target: T2, hERG potassium channel (Homo sapiens, UniProt Q12809); experiment: hERG screening assay (PatchXpress automated patch clamp, CHO cell line); details: CHO cells; for hERG Patch Clamp hERG % blk (1 μm test cmpd): 1 μm test compound; for hERG Patch Clamp hERG % blk (10 μm test cmpd): 10 μm test compound
T2 construct: expressed in transfected cells; host or cells: CHO (Chinese Hamster Ovary)
T2 sequence (Q12809 whole entry): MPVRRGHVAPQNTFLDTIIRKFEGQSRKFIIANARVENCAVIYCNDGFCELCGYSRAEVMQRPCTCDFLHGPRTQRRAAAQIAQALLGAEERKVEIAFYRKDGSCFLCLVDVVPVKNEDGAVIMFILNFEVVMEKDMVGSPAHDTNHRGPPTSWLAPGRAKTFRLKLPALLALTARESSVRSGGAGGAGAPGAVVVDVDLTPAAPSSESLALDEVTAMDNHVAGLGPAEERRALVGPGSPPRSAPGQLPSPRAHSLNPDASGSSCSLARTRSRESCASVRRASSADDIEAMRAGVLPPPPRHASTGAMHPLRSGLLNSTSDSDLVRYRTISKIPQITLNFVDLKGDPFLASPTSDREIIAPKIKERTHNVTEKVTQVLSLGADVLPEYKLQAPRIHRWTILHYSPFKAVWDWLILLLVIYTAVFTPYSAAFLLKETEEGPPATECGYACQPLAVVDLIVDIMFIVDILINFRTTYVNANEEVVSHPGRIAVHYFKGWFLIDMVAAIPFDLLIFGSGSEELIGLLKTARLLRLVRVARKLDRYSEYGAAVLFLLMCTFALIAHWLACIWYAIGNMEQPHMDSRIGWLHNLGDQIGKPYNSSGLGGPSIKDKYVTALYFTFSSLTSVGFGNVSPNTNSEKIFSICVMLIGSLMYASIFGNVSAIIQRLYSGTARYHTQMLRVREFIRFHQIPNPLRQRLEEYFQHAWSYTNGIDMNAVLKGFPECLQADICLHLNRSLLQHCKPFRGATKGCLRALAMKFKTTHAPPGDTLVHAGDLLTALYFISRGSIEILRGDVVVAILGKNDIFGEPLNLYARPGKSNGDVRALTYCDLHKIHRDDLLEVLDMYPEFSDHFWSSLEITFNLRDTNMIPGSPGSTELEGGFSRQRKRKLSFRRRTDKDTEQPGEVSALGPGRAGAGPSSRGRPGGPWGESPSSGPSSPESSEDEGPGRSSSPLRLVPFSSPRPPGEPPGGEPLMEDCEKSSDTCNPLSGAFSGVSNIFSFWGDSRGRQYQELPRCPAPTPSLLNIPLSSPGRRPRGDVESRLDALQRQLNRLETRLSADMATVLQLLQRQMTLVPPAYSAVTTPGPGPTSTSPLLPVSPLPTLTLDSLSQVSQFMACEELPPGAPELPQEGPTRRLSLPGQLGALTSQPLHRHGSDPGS
Protocol: Compounds were screened to test their activity in blocking the hERG potassium channel. The hERG channel is heterologously expressed in a CHO (Chinese Hamster Ovary) cell line. Cells were maintained with standard tissue culture procedures and stable channel expression is maintained with 500 μg/ml G418 in the culture medium. Cells were harvested for testing on the PatchXpress automated patch clamp with Accumax (Innovative Cell Technologies, San Diego, Calif.) to isolate single cells.
The following solutions were used for electrophysiological recordings. The external solution contains: 2 mM CaCl2; 2 mM MgCl2; 4 mM KCl; 150 mM NaCl; 10 mM Glucose; 10 mM HEPES (pH 7.4 with 1M NaOH, osmolarity). The internal solution contained: 140 mM KCl, 10 mM MgCl2, 6 mM EGTA, 5 mM HEPES, 5 mM ATP (pH adjusted to 7.25 with KOH).
hERG channels are activated when the voltage is stepped to +20 mV from the −80 mV holding potential. During a 5 second step at +20 mV, the channels activate and then largely inactivate, so the currents are relatively small. Upon returning to −50 mV from +20 mV, hERG currents transiently become much larger as inactivation is rapidly removed and then the channel closes. The first step to −50 mV for 300 ms is used as a baseline for measuring the peak amplitude during the step to −50 mV after channel activation. The peak current at −50 mV was measured both under control conditions and after addition of compound.
All compounds were prepared as 10 mM DMSO stocks in glass vials. Stock solutions were mixed by vigorous vortexing and sonication for about 2 minutes at room temperature. For testing, compounds were diluted in glass vials using an intermediate dilution step in pure DMSO and then further diluted to working concentrations in external solution. Dilutions were prepared no longer than 20 minutes before use.
After achieving the whole-cell configuration, cells were monitored for 90 seconds to assess stability and washed with external solution for 66 seconds. The voltage protocol described above was then applied to the cells every 12 seconds and throughout the whole procedure. Only cells with stable recording parameters and meeting specified health criteria were allowed to enter the compound addition procedure.
External solution containing 0.1% DMSO (vehicle) was applied to the cells first to establish the control peak current amplitude. After allowing the current to stabilize for 3 to 5 minutes, 1 μM and then 10 μM test compounds was applied. Each compound concentration was added 4 times and cells were kept in test solution until the effect of the compound reaches steady state or for a maximum of 12 minutes. After addition of test compound, a positive control (1 μM Cisapride) was added and must block >95% of the current for the experiment to be considered valid. Washout in the external solution compartment was performed until the recovery of the current reaches steady state. Data were analyzed using DataXpress, Clampfit (Molecular Devices, Inc., Sunnyvale) and Origin 7 (Originlab Corp.)

[2] = biological target: T3, human Nav1.7 (hNav1.7+β1 subunits) channels expressed in HEK293 cells (Homo sapiens, UniProt Q15858); experiment: Nav1.7 screening assay (fluorescent dye-based membrane potential assay, veratridine); details: veratridine 50 μmol/L, read-out: IC50 for reduction of Nav1.7 Na+ current
T3 construct: expressed in transfected cells; host or cells: HEK293

IC50 [2] [µM]	SMILES	inhibition at 10 µM [1] [%]	hERG Patch Clamp hERG % blk (1 μm test cmpd) (hERG potassium channel) [%]	hERG Patch Clamp hERG % blk (10 μm test cmpd) (hERG potassium channel) [%]	Late Ina % blk (1 μM test cmpd) ([1]; 1 μM test compound) [%]
0.2	Cc1nc2ccc(Cl)cc2c(-c2ccccc2)c1-c1nnc(Cc2ccc(Cl)cc2)o1 [PT-005, 6-chloro-3-[5-(4-chlorobenzyl)-1,3,4-oxadiazol-2-yl]-2-methyl-4-phenylquinoline]	43.6	10.5	32.5	–
–	CCOC(=O)c1c(Cn2cnnn2)nc2ccc(Cl)cc2c1-c1ccccc1 [PT-010, ethyl 6-chloro-4-phenyl-2-(1H-tetrazol-1-ylmethyl)quinoline-3-carboxylate]	41.6	18.5	66.0	–
–	Cc1nc2ccc(Cl)cc2c(-c2ccccc2)c1C(=O)OC(c1ccccc1)C1CC1 (stereo not drawn) [PT-012, cyclopropyl(phenyl)methyl 6-chloro-2-methyl-4-phenylquinoline-3-carboxylate]	20.5	10.5	13.5	–
37.5	Cc1nc2ccc(Cl)cc2c(-c2ccccc2)c1C(=O)OCC1CC1 [PT-016, cyclopropylmethyl 6-chloro-2-methyl-4-phenylquinoline-3-carboxylate]	59	30.5	73.0	–
–	Cc1nc2ccc(Cl)cc2c(-c2ccccc2)c1C(=O)N1CCC(c2ccc(C(N)=O)cc2)CC1 [PT-017, 4-{1-[(6-chloro-2-methyl-4-phenylquinolin-3-yl)carbonyl]piperidin-4-yl}benzamide]	29.4	28.5	51.0	–
–	Cc1nc2ccccc2c(C)c1C(=O)OCc1ccc(Cl)cc1 [PT-019, 4-chlorobenzyl 2,4-dimethylquinoline-3-carboxylate]	70.1	10.0	62.5	22.5
